From publication PMC8800111 (The Journal of Biological Chemistry, 2021)

Assays:
Type in all cases: cell-based
[1] = target: proteins of U3A human fibrosarcoma cells (4462 proteins detected) (Homo sapiens, UniProt P09874); conditions: protein PARP1; U3A cells
[2] = target: proteins of U3A human fibrosarcoma cells (4462 proteins detected) (Homo sapiens, UniProt Q9UIV1); conditions: protein CNOT7; U3A, 10 μM, 2 h
[3] = target: proteins of U3A human fibrosarcoma cells (4462 proteins detected) (Homo sapiens, UniProt P30050); conditions: protein RPL12; soluble abundance after heat, U3A cells
[4] = target: proteins of U3A human fibrosarcoma cells (4462 proteins detected) (Homo sapiens, UniProt Q5JSH3); conditions: protein WDR44, U3A cells
Sequence of proteins of U3A human fibrosarcoma cells (4462 proteins detected) (Homo sapiens, UniProt Q5JSH3) (Q5JSH3 whole entry): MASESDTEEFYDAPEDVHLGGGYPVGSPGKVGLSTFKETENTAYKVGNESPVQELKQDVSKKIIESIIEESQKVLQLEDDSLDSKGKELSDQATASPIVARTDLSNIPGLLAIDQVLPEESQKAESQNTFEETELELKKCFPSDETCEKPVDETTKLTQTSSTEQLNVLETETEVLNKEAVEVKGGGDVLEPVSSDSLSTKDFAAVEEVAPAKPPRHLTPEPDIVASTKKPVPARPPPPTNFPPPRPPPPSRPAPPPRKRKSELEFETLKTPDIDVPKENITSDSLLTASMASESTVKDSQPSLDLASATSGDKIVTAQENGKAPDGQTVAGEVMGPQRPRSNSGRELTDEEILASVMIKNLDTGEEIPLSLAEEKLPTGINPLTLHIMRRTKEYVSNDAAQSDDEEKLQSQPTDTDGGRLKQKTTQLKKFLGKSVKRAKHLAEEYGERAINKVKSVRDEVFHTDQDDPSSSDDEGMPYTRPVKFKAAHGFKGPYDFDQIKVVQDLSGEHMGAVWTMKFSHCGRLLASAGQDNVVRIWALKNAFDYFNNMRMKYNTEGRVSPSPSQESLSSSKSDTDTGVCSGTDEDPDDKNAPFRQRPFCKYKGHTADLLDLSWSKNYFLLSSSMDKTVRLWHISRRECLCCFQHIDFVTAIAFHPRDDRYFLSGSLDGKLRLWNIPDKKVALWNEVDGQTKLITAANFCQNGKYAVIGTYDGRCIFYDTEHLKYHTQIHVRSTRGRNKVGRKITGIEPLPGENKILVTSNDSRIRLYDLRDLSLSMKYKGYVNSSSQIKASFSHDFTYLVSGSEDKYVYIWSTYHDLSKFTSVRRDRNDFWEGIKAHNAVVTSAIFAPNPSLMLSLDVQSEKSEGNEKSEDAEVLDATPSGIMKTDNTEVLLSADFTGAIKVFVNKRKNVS

[5] = target: proteins of U3A human fibrosarcoma cells (4462 proteins detected) (Homo sapiens, UniProt P61923); conditions: protein COPZ1; U3A cells
[6] = target: proteins of U3A human fibrosarcoma cells (4462 proteins detected) (Homo sapiens, UniProt Q8N129); conditions: protein CNPY4, U3A cells
Sequence of proteins of U3A human fibrosarcoma cells (4462 proteins detected) (Homo sapiens, UniProt Q8N129) (Q8N129 22-248): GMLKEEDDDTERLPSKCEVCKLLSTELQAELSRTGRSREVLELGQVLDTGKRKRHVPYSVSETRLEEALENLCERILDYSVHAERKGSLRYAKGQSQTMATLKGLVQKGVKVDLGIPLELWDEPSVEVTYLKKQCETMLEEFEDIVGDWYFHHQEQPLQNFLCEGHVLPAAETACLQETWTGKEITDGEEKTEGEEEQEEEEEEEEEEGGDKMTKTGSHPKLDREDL

[7] = target: proteins of U3A human fibrosarcoma cells (4462 proteins detected) (Homo sapiens, UniProt Q8TEP8); conditions: protein CEP192; U3A, 10 μM, 2 h
Sequence of proteins of U3A human fibrosarcoma cells (4462 proteins detected) (Homo sapiens, UniProt Q8TEP8) (Q8TEP8 whole entry): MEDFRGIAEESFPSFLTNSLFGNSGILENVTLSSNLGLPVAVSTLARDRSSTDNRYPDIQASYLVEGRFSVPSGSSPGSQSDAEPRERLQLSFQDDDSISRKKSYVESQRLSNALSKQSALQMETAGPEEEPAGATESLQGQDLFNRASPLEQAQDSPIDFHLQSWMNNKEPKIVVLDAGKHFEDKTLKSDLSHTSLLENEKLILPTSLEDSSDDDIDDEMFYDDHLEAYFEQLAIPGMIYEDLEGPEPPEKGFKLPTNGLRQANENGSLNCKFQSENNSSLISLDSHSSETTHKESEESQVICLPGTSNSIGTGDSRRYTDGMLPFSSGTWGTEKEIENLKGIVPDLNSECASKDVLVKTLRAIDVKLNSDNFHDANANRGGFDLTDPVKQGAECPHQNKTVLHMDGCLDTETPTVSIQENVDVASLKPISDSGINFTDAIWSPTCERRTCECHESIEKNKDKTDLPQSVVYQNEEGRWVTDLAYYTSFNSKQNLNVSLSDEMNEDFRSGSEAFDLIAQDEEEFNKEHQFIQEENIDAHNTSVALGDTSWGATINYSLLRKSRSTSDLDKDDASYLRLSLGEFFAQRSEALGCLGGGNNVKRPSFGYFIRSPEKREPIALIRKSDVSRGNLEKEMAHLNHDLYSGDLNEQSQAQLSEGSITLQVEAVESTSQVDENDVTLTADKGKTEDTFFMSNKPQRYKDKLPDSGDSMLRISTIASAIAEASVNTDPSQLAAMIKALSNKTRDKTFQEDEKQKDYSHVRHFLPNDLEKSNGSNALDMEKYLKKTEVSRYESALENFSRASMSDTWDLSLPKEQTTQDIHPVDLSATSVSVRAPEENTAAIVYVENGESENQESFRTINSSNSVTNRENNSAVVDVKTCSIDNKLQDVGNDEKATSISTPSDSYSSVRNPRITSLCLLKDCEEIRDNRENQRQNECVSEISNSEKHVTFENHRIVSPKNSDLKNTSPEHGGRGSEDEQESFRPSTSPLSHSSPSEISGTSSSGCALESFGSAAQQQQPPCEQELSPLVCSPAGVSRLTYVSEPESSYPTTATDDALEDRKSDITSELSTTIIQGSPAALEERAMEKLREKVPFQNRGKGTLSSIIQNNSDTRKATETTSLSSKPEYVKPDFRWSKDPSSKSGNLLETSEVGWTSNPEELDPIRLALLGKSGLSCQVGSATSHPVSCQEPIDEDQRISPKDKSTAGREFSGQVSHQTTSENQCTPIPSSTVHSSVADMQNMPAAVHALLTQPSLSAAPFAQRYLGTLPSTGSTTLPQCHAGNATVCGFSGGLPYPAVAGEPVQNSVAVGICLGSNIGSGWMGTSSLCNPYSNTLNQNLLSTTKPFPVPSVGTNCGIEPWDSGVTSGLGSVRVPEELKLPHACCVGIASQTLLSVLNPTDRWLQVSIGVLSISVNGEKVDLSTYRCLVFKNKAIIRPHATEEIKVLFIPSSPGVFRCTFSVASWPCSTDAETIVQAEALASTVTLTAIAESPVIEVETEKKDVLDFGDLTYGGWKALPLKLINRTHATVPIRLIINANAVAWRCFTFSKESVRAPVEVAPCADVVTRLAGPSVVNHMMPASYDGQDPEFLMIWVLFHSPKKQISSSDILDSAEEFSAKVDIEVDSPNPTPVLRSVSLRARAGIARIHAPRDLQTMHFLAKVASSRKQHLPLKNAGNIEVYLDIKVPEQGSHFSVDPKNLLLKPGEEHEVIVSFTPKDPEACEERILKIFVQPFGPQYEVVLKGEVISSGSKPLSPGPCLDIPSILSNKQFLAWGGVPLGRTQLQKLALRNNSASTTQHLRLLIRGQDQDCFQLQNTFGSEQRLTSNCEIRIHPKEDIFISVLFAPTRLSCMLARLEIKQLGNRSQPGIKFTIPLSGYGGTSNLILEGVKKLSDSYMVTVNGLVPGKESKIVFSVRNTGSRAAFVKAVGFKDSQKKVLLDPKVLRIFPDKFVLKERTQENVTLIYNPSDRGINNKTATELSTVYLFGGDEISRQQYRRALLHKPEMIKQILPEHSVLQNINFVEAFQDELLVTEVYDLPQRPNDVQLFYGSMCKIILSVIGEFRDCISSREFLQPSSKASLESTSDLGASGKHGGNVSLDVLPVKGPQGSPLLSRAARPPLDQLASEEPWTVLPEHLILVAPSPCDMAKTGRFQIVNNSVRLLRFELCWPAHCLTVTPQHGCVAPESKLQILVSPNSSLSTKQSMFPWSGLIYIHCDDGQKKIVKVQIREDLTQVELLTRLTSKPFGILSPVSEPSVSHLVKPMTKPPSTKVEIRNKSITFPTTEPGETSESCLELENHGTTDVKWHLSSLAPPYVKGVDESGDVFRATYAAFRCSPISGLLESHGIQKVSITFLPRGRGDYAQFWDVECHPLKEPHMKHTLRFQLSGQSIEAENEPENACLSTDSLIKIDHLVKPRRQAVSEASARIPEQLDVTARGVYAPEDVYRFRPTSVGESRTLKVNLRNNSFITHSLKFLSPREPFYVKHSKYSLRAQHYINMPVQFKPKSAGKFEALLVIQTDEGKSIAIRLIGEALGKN

[8] = target: proteins of U3A human fibrosarcoma cells (4462 proteins detected) (Homo sapiens, UniProt Q14974); conditions: protein KPNB1; soluble abundance after heat, U3A cells
[9] = target: proteins of U3A human fibrosarcoma cells (4462 proteins detected) (Homo sapiens, UniProt Q9BT78); conditions: protein COPS4; U3A cells
[10] = target: proteins of U3A human fibrosarcoma cells (4462 proteins detected) (Homo sapiens, UniProt Q8NCN4); conditions: protein RNF169, U3A cells
Sequence of proteins of U3A human fibrosarcoma cells (4462 proteins detected) (Homo sapiens, UniProt Q8NCN4) (Q8NCN4 whole entry): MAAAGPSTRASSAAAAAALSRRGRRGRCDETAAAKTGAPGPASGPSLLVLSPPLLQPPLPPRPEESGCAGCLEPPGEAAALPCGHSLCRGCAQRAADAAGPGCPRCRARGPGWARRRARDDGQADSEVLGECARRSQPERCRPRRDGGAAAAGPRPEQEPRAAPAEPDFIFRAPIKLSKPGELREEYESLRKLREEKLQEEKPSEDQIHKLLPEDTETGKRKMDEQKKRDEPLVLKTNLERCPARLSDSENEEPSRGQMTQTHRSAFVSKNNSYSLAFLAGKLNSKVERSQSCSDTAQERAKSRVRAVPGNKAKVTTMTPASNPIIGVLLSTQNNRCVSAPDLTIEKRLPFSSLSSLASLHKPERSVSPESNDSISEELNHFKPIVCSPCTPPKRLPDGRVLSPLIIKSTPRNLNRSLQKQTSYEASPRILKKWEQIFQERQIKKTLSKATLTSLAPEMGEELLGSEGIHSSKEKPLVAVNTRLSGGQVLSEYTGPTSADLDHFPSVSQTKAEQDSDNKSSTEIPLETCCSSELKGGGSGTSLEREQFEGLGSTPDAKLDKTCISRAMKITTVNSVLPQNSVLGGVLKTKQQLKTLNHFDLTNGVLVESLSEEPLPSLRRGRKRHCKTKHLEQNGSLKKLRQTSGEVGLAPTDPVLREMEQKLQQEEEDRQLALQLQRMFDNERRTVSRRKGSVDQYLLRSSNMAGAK

[11] = target: proteins of U3A human fibrosarcoma cells (4462 proteins detected) (Homo sapiens, UniProt P08582); conditions: protein MFI2; U3A cells
[12] = target: proteins of U3A human fibrosarcoma cells (4462 proteins detected) (Homo sapiens, UniProt P52272); conditions: protein HNRNPM; U3A cells
[13] = target: proteins of U3A human fibrosarcoma cells (4462 proteins detected) (Homo sapiens, UniProt Q9Y5J6); conditions: protein TIMM10B; U3A cells
Sequence of proteins of U3A human fibrosarcoma cells (4462 proteins detected) (Homo sapiens, UniProt Q9Y5J6) (Q9Y5J6 whole entry): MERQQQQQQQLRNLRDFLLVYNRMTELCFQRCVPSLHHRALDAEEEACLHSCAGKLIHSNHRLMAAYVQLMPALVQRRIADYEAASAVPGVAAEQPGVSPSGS

[14] = target: proteins of U3A human fibrosarcoma cells (4462 proteins detected) (Homo sapiens, UniProt Q8NFQ8); conditions: protein TOR1AIP2; U3A cells
[15] = target: proteins of U3A human fibrosarcoma cells (4462 proteins detected) (Homo sapiens, UniProt O60341); conditions: protein KDM1A; soluble abundance after heat, U3A cells
[16] = target: proteins of U3A human fibrosarcoma cells (4462 proteins detected) (Homo sapiens, UniProt Q658Y4); conditions: protein FAM91A1; soluble abundance after heat, U3A cells
[17] = target: proteins of U3A human fibrosarcoma cells (4462 proteins detected) (Homo sapiens, UniProt Q92922); conditions: protein SMARCC1; soluble abundance after heat, U3A cells
[18] = target: proteins of U3A human fibrosarcoma cells (4462 proteins detected) (Homo sapiens, UniProt Q9Y281); conditions: protein CFL2, U3A cells
[19] = target: proteins of U3A human fibrosarcoma cells (4462 proteins detected) (Homo sapiens, UniProt Q86TB9); conditions: protein PATL1; U3A cells
[20] = target: proteins of U3A human fibrosarcoma cells (4462 proteins detected) (Homo sapiens, UniProt Q96T60); conditions: protein PNKP; U3A, 10 μM, 2 h
[21] = target: proteins of U3A human fibrosarcoma cells (4462 proteins detected) (Homo sapiens, UniProt P49840); conditions: protein GSK3A; U3A cells
[22] = target: proteins of U3A human fibrosarcoma cells (4462 proteins detected) (Homo sapiens, UniProt P04083); conditions: protein ANXA1, U3A cells
[23] = target: proteins of U3A human fibrosarcoma cells (4462 proteins detected) (Homo sapiens, UniProt P35244); conditions: protein RPA3; soluble abundance after heat, U3A cells
Sequence of proteins of U3A human fibrosarcoma cells (4462 proteins detected) (Homo sapiens, UniProt P35244) (P35244 whole entry): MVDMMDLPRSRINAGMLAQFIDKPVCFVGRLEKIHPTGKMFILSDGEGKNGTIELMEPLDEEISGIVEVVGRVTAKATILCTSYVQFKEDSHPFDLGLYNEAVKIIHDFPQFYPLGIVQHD

[24] = target: proteins of U3A human fibrosarcoma cells (4462 proteins detected) (Homo sapiens, UniProt P06756); conditions: protein ITGAV; soluble abundance after heat, U3A cells
[25] = target: proteins of U3A human fibrosarcoma cells (4462 proteins detected) (Homo sapiens, UniProt O00567); conditions: protein NOP56; U3A cells
[26] = target: proteins of U3A human fibrosarcoma cells (4462 proteins detected) (Homo sapiens, UniProt Q9NYV4); conditions: protein CDK12; U3A cells
[27] = target: proteins of U3A human fibrosarcoma cells (4462 proteins detected) (Homo sapiens, UniProt Q06546); conditions: protein GABPA; U3A cells
[28] = target: proteins of U3A human fibrosarcoma cells (4462 proteins detected) (Homo sapiens, UniProt Q969G3); conditions: protein SMARCE1, U3A cells
[29] = target: proteins of U3A human fibrosarcoma cells (4462 proteins detected) (Homo sapiens, UniProt P23528); conditions: protein CFL1, U3A cells
[30] = target: proteins of U3A human fibrosarcoma cells (4462 proteins detected) (Homo sapiens, UniProt P28482); conditions: protein MAPK1; soluble abundance after heat, U3A cells

Sequence of proteins of U3A human fibrosarcoma cells (4462 proteins detected) (Homo sapiens, UniProt Q9UIV1) (Q9UIV1 whole entry): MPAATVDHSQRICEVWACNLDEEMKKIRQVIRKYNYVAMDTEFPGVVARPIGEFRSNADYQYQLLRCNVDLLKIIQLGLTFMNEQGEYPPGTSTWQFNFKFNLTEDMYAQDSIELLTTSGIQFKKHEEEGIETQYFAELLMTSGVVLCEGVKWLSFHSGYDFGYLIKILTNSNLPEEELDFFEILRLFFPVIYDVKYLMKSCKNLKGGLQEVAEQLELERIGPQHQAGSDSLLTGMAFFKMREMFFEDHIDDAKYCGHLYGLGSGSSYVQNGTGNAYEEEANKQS

## CCc1nc(N)nc(N)c1-c1ccc(Cl)cc1 [pyrimethamine]
[1]
  Log2 (PYR/DMSO): 0.19
[2]
  Log2 (PYR/DMSO), CNOT7: -0.24
[3]
  Log2 (PYR/DMSO): 0.14
[4]
  Log2 (PYR/DMSO): -0.05
[5]
  Log2 (PYR/DMSO): 0.18
[6]
  Log2 (PYR/DMSO): -0.04
[7]
  Log2 (PYR/DMSO), CEP192: -0.22
[8]
  Log2 (PYR/DMSO): 0.14
[9]
  Log2 (PYR/DMSO): 0.20
[10]
  Log2 (PYR/DMSO): -0.03
[11]
  Log2 (PYR/DMSO): 0.18
[12]
  Log2 (PYR/DMSO): 0.16
[13]
  Log2 (PYR/DMSO): 0.18
[14]
  Log2 (PYR/DMSO): 0.17
[15]
  Log2 (PYR/DMSO): 0.14
[16]
  Log2 (PYR/DMSO): 0.14
[17]
  Log2 (PYR/DMSO): 0.15
[18]
  Log2 (PYR/DMSO): -0.04
[19]
  Log2 (PYR/DMSO): 0.22
[20]
  Log2 (PYR/DMSO), PNKP: -0.22
[21]
  Log2 (PYR/DMSO): 0.16
[22]
  Log2 (PYR/DMSO): -0.05
[23]
  Log2 (PYR/DMSO): 0.13
[24]
  Log2 (PYR/DMSO): 0.14
[25]
  Log2 (PYR/DMSO): 0.21
[26]
  Log2 (PYR/DMSO): 0.20
[27]
  Log2 (PYR/DMSO): 0.19
[28]
  Log2 (PYR/DMSO): -0.05
[29]
  Log2 (PYR/DMSO): -0.04
[30]
  Log2 (PYR/DMSO): 0.15
